Laboratory results from patent US11338007B2, “Combination formulation of three antiviral compounds” (priority 2016, dated 2022).

Legend:
genotype 2 or 3 HCV = assay: SVR in HCV infected patients given sofosbuvir plus other HCV therapeutics; type: in vivo, human; details: 400 mg once daily plus other HCV therapeutics; genotype 2 or 3 HCV infected patients
Procedure: Safety and tolerability appeared similar across both dose levels. In addition, when sofosbuvir 400 mg once daily plus other HCV therapeutics were given to genotype 2 or 3 HCV infected patients, 100% SVR24 was observed.

[1] = Impact of desiccant and packaging configuration on tablet stability (Tables 24A-24C); type: physicochemical; details: for I/D (%) / LS (%): tablets;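 as to all read-outs here: stability of tablets stored with different desiccant amounts and packaging configurations, evaluating physical and chemical stability plus dissolution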
[2] = Photostability of tablet cores and film-coated tablets per ICH Q1B (Table 12); type: physicochemical
Procedure: Tablet cores and film-coated tablets were evaluated per ICH Q1B guidelines with a total of illumination of more than 1.2 million-lux hours and a total irradiance of more than 200 W·hr/m^2.

[3] = Stress studies: stability of tablets made with stressed VEL SSD/VOX SSD (water, residual solvent, peroxide, reprocessing, potency; Tables 16-21); type: physicochemical; details: for LS / Total Imp./Deg.: SSD water content study
Procedure: The impact of the following stressors on the physical and chemical stability of the sofosbuvir/velpatasvir SSD/voxilaprevir SSD tablets were evaluated:
(i) Voxilaprevir SSD and velpatasvir SSD, and sofosbuvir/velpatasvir SSD/voxilaprevir SSD tablet water content;
(ii) Copovidone peroxide content in velpatasvir SSD and in voxilaprevir SSD (iii) Reprocessed velpatasvir SSD and voxilaprevir SSD;
(iv) Voxilaprevir SSD and velpatasvir SSD potency (varying the ratio of velpatasvir or voxilaprevir to copovidone); and
(v) Seeding sofosbuvir/velpatasvir SSD/voxilaprevir SSD tablets with crystalline voxilaprevir Form VIII and Form X drug substances.

[4] = closed, 1 g desiccant, 25° C./60% RH, 12 weeks
[5] = closed, 1 g desiccant, 25° C./60% RH, 24 weeks
[6] = closed, 1 g desiccant, 40° C./75% RH, 4 weeks
[7] = closed, 1 g desiccant, 40° C./75% RH, 12 weeks
[8] = closed, 1 g desiccant, 40° C./75% RH, 24 weeks
[9] = closed, 3 g desiccant, 25° C./60% RH, 12 weeks
[10] = closed, 3 g desiccant, 25° C./60% RH, 24 weeks
[11] = closed, 3 g desiccant, 40° C./75% RH, 4 weeks
[12] = closed, 3 g desiccant, 40° C./75% RH, 12 weeks
[13] = closed, 3 g desiccant, 40° C./75% RH, 24 weeks
[14] = closed, no desiccant, 25° C./60% RH, 12 weeks
[15] = closed, no desiccant, 25° C./60% RH, 24 weeks
[16] = closed, no desiccant, 40° C./75% RH, 4 weeks
[17] = closed, no desiccant, 40° C./75% RH, 12 weeks
[18] = closed, no desiccant, 40° C./75% RH, 24 weeks
[19] = desiccant study, Initial, time 0
[20] = film-coating 0% weight gain, Exposed to Light
[21] = film-coating 2.1% weight gain, Exposed to Light
[22] = film-coating 2.1% weight gain, Protected from Light
[23] = film-coating 3.4% weight gain, Exposed to Light
[24] = film-coating 3.4% weight gain, Protected from Light
[25] = film-coating 4.1% weight gain, Exposed to Light
[26] = film-coating 4.1% weight gain, Protected from Light
[27] = film-coating 5.4% weight gain, Protected from Light
[28] = open (no desiccant), 40° C./75% RH, 4 weeks

CC(C)OC(=O)C(C)N[P@](=O)(OC[C@H]1O[C@@H](n2ccc(=O)[nH]c2=O)[C@](C)(F)[C@@H]1O)Oc1ccccc1 (stereo in doubt) [sofosbuvir, (S)-isopropyl 2-(((S)-(((2R,3R,4R,5R)-5-(2,4-dioxo-3,4-dihydropyrimidin-1(2H)-yl)-4-fluoro-3-hydroxy-4-methyltetrahydrofuran-2-yl)methoxy)(phenoxy)phosphoryl)amino)propanoate]
SVR24 (genotype 2 or 3 HCV): 100%
total impurities/degradation products ([1]; desiccant study (0, 1, 3 g), all conditions, 6 months): 0.0%
I/D (%) [1, 4]: 0.0%
LS (%) [1, 4]: 99.3%
I/D (%) [1, 5]: 0.0%
LS (%) [1, 5]: 100.4%
I/D (%) [1, 6]: 0.0%
LS (%) [1, 6]: 100.0%
I/D (%) [1, 7]: 0.0%
LS (%) [1, 7]: 99.4%
I/D (%) [1, 8]: 0.0%
LS (%) [1, 8]: 101.7%
I/D (%) [1, 9]: 0.0%
LS (%) [1, 9]: 100.3%
I/D (%) [1, 10]: 0.0%
LS (%) [1, 10]: 101.6%
I/D (%) [1, 11]: 0.0%
LS (%) [1, 11]: 100.0%
I/D (%) [1, 12]: 0.0%
LS (%) [1, 12]: 99.9%
I/D (%) [1, 13]: 0.0%
LS (%) [1, 13]: 102.3%
I/D (%) [1, 14]: 0.0%
LS (%) [1, 14]: 99.3%
I/D (%) [1, 15]: 0.0%
LS (%) [1, 15]: 100.2%
I/D (%) [1, 16]: 0.0%
LS (%) [1, 16]: 101.4%
I/D (%) [1, 17]: 0.0%
LS (%) [1, 17]: 100.3%
I/D (%) [1, 18]: 0.0%
LS (%) [1, 18]: 100.4%
I/D (%) [1, 19]: 0.0%
LS (%) [1, 19]: 102.1%
LS [2, 20]: 101.5%
Total Imp./Deg. Products [2, 20]: 0.0%
Total Imp./Deg. Products ([2]; film-coating 0% weight gain, Protected from Light): 0.0%
LS [2, 21]: 101.7%
Total Imp./Deg. Products [2, 21]: 0.0%
LS [2, 22]: 101.2%
Total Imp./Deg. Products [2, 22]: 0.0%
LS [2, 23]: 100.6%
Total Imp./Deg. Products [2, 23]: 0.0%
LS [2, 24]: 101.8%
Total Imp./Deg. Products [2, 24]: 0.0%
LS [2, 25]: 102.0%
Total Imp./Deg. Products [2, 25]: 0.0%
LS [2, 26]: 101.2%
Total Imp./Deg. Products [2, 26]: 0.0%
Total Imp./Deg. Products ([2]; film-coating 5.4% weight gain, Exposed to Light): 0.0%
LS [2, 27]: 101.0%
Total Imp./Deg. Products [2, 27]: 0.0%
level of degradation products ([2]; tablets film-coated to weight gains 2.1 to 5.4%): 0.0%
loss after exposure to light ([2]; uncoated tablet cores): no change
total impurities/degradation products ([3]; SSD potency study, tablet Lots A-D, all conditions): 0.0%
LS ([3]; Initial): 100.5%
Total Imp./Deg. ([3]; Initial): 0.0%
LS [3, 28]: 101.2%
Total Imp./Deg. [3, 28]: 0.0%
LS (%) ([3]; tablets Lot A (super-potent VEL SSD, super-potent VOX SSD), Initial, time 0): 100.1%
